Laboratory results reported in patent US11591596B2, “Compounds and compositions including phosphorothioated oligodeoxynucleotide, and methods of use thereof” (City of Hope, priority 2015, dated 2023).

Experiments:
miR-125b = assay: Mature miR-125b expression by TAQMAN qPCR; type: cell-based, human and mouse; conditions: 100 nM, 18 h; various cell models
Description: FIGS. 18A-18F. Inhibitory effects of CpG-anti-miR125b. […] RAW264.7 (FIG. 18A), DC2.4 (FIG. 18B), and MV4-11 (FIG. 18C) cells were incubated with 100 nM CpG-anti-miR125b or CpG-scrambled RNA (negative control) for 18 h and then treated with 1 vg/mILPS for 4 h. Human AML cells—KG1a (FIG. 18D), MOLM13 (FIG. 18E), and MOLM14 (FIG. 18F)—were incubated with 100 nM CpG-anti-miR125b or control CpG-scrambled RNA for 18 h. Mature miR-125b expression was measured using TAQMAN® qPCR assay and normalized to snoRNA234 levels. miR-125b expression level in untreated samples was set as 1.0. Data are shown as means±SEM (n=3). *P<0.05.

[1] = tested on: Human immune cells (CD14+ monocytes, CD1c+ mDCs, CD3+ T cells and CD19+ B cells); assay: Uptake of Cy3-labeled CpG-anti-miRs by human immune cells, flow cytometry; type: cell-based; conditions: for intracellular uptake: Cy3-labeled, human immune cells
Description: FIGS. 16A-16B. Cell-selective uptake of CpG-anti-miR146a. […] CpG-anti-miR146a was Cy3-labeled to detect the intracellular uptake by target cells using flow cytometry. FIG. 16A) Human immune cells were incubated with indicated concentrations of CpG-anti-miR146acY3 for 1 hr. The uptake by CD14+ monocytes, CD1c+ mDCs, CD3+ T cells and CD19+ B cells was measured using flow cytometry.
where * indicates a phosphorothioate linkage, mN indicates a 2′OMe modified nucleotide, and x indicates a linker described herein. CpG-anti-miRNAs were Cy3-labeled to detect the intracellular uptake by target cells using flow cytometry. […] Treatment of these compounds reduces the corresponding miR expression in human and mouse myeloid cells (FIGS. 17A-17F, 18A-18F, 19A-19H).

IRF4 (miR125b target) = assay: Immunoblot of downstream target IRF4; type: cell-based, mouse or human; conditions: 250 nM or 500 nM, 48 h; RAW264.7 or MV4-11 cells
Description: (§1) FIGS. 20A-20D. Effects of CpG-anti-miRNAs on downstream targets. […] Mouse RAW264.7 or human MV4-11 cells were incubated with 250 nM or 500 nM of CpG-anti-miR155, CpG-anti-miR125b, or CpG-anti-miR146a, or 500 nM of CpG-scramble for 48 h, then the cell lysates were collected and electrophoresed and immunoblotted by antibodies against SHIP1 (miR155 target) (FIG. 20A), IRF4 (miR125b target) (FIG. 20B), or IRAK1 (miR146a target) (FIG. 20C). The band intensities were normalized against β-actin and quantified. Fold induction over the control protein levels are indicated below the blot. FIG. 20D) MV4-11 cells were incubated with 500 nM of CpG-anti-miR155, CpG-antimiR125b, CpG-anti-miR146a, or CpG-scramble for 24 h, then cell lysates were collected and electrophoresed and immunoblotted to detect activated caspase 3 indicating induction of apoptosis.
(§2) Mouse RAW264.7 or human MV4-11 cells were incubated with 250 nM or 500 nM of CpGanti-miR155, CpG-anti-miR125b, or CpG-anti-miR146a, or 500 nM of CpG-scramble for 48 h, then the cell lysates were collected and electrophoresed and immunoblotted by antibodies against SHIP1 (miR155 target) (FIG. 20A), IRF4 (miR125b target) (FIG. 20B), or IRAK1 (miR146a target) (FIG. 20C). The band intensities were normalized against β-actin and quantified. Fold induction over the control protein levels are indicated below the blot. […]

miR-126 = miR-126 expression in K562 and MV4-11 cells with miR-126 inhibitors or mimics; type: cell-based; conditions: 500 nM, 24 hours
Description: FIGS. 26A-26E. Effective knockdown of miR-126 with miR-126 inhibitors conjugated with CpG, GpC and PS, and effective over-expression with miR-126 mimics in K562 and MV4-11 cells. K562 and MV4-11 cells were treated with miR-126 inhibitors conjugated with CpG, GpC, PS (FIGS. 26A-26B) or miR-126 mimics (615, 616 and 617) (FIGS. 26C-26D) (500 nM) for 24 hours, and miR-126 expression was measured in these cells. […] FIG. 26E) Tabulation of sequence set forth herein.
Effective knockdown of miR-126 with miR-126 inhibitors conjugated with CpG, GpC and PS, and effective over-expression with miR-126 mimics in K562 and MV4-11 cells. K562 and MV4-11 cells were treated with miR-126 inhibitors conjugated with CpG, GpC, PS (FIGS. 26A-26B) or miR-126 mimics (615, 616 and 617) (FIGS. 26C-26D) (500 nM) for 24 hours, and miR-126 expression was measured in these cells.

miR-155 = assay: Mature miR-155 expression by TAQMAN qPCR; type: cell-based, human and mouse; conditions: 100 nM
Description: FIGS. 17A-17F. Inhibitory effects of CpG-anti-miR155. […] Mouse RAW264.7 (macrophages) (FIG. 17A) and DC2.4 (dendritic cells) (FIG. 17B) as well as human MV4-11 AML cells (FIG. 17C) were incubated with 100 nM CpG-anti-miR155 or CpG-scrambled RNA (negative control) for 18 h and then treated with 1 vg/ml LPS for 4 h. KG1a (FIG. 17D), MOLM13 (FIG. 17E), and MOLM14 (FIG. 17F) cells were incubated with 100 nM CpG-anti-miR155 or CpG-scrambled RNA for 18 h. Mature miR-155 expression was measured using TAQMAN® qPCR assay and normalized to snoRNA234 levels. miR-155 expression level in untreated samples was set as 1.0. Data are shown as means±SEM (n=3). *P<0.05.
(§3) FIGS. 21A-21H. Comparing the inhibition effects of CpG-anti-miR and GpC-anti-miR. […] The cells were incubated with 100 nM CpG-anti-miRs or GpC-anti-miRs for 18 hrs. […] RAW264.7 (FIGS. 21E,21G) or A20 cells (FIGS. 21F,21H) were incubated with 500 nM of CpG-anti-miR155, GpC-anti-miR155, or CpG-anti-miR146a, GpC-anti-miR146a for 48 hrs, then the cell lysates were collected and immunoblotted using antibodies against SHIP1 (miR155 target) or IRAK1 (miR146a target)
The cells were incubated with 100 nM CpG-anti-miRs or GpC-anti-miRs for 18 hrs. […]

SHIP1 (miR155 target) = assay: Immunoblot of downstream target SHIP1; type: cell-based, mouse or human
Description: as §1
FIGS. 21A-21H. Comparing the inhibition effects of CpG-anti-miR and GpC-anti-miR. […]
as §2, with “quantified.” for “quantified. Fold induction over the control protein levels are indicated below the blot.”

miR-146a = assay: Mature miR-146a expression by TAQMAN qPCR; type: cell-based, human and mouse; conditions: 100 nM
Description: FIGS. 19A-19H. Inhibitory effects of CpG-anti-miR146a. […] Mouse RAW264.7 (macrophages) (FIG. 19A) and DC2.4 (dendritic cells) (FIG. 19B) as well as human MV4-11 (FIG. 19C) and KG1a AML (FIG. 19D) cells were incubated with 100 nM CpG-anti-miR146a or CpG-scrambled RNA (negative control) for 18 h and then treated with 1 vg/ml LPS for 4 h. KG1a, MOLM13 (FIG. 19E), and MOLM14 (FIG. 19F) cells were incubated with 100 nM CpG-anti-miR146a or CpG-scrambled RNA for 18 h. FIGS. 19G-19H) Mouse CMM AML cells (FIG. 19G) and A20 lymphoma cells (FIG. 19H) were incubated with 100 nM CpG-miR146a mimic for 18 h. Mature miR-146a expression was measured using TAQMAN® qPCR assay and normalized to snoRNA234 levels. miR-146a expression level in untreated samples was set as 1.0. Data are shown as means±SEM (n=3). *P<0.05.
as §3
The cells were incubated with 100 nM CpG-anti-miRs or GpC-anti-miRs for 18 hrs. […] RAW264.7 (FIGS. 21E,21G) or A20 cells (FIGS. 21F,21H) were incubated with 500 nM of CpG-anti-miR155, GpC-anti-miR155, or CpG-anti-miR146a, GpC-anti-miR146a for 48 hrs, then the cell lysates were collected and immunoblotted using antibodies against SHIP1 (miR155 target) or IRAK1 (miR146a target).

IRAK1 (miR146a target) = assay: Immunoblot of downstream target IRAK1; type: cell-based, mouse or human; conditions: for IRAK1 (downstream target regulation): 500 nM, 48 hrs, RAW264.7 or A20 cells
Description: as §1, §3
Mouse RAW264.7 or human MV4-11 cells were incubated with 250 nM or 500 nM of CpGanti-miR155, CpG-anti-miR125b, or CpG-anti-miR146a, or 500 nM of CpG-scramble for 48 h, then the cell lysates were collected and electrophoresed and immunoblotted by antibodies against SHIP1 (miR155 target) (FIG. 20A), IRF4 (miR125b target) (FIG. 20B), or IRAK1 (miR146a target) (FIG. 20C). The band intensities were normalized against β-actin and quantified. Fold induction over the control protein levels are indicated below the blot. FIG. 20D) MV4-11 cells were incubated with 500 nM of CpG-anti-miR155, CpG-antimiR125b, CpG-anti-miR146a, or CpG-scramble for 24 h, then cell lysates were collected and electrophoresed and immunoblotted to detect activated caspase 3 indicating induction of apoptosis. […]

[2] = tested on: human AML cells KG1a, MOLM13, and MOLM14; assay: Uptake of Cy3-labeled CpG-anti-miR146a by cultured AML cells; type: cell-based; conditions: even at low concentrations
[3] = 18 h, human and mouse myeloid cells
[4] = 250 nM or 500 nM, 48 h, RAW264.7 or MV4-11 cells

## 5′ G*G*T GCA TCG ATG CAGG*G*G* G*G xxxxx mU*mC*mA*mC*mA*mA*mG*mU*mU*mA*mG*mG*mG*mU*mC*mU*mC*mA*mG*mG*mG*mA 3′ [CpG-anti-miR125b]
miR-125b
  miR-125b expression: reduces miR-125b expression
[1]
  intracellular uptake: uptake of these compounds was observed
IRF4 (miR125b target)
  IRF4 protein level (downstream target regulation): regulate downstream targets

## 5′ G*G*T*G*C*A*T*C*G*A*T*G*C*A*G*G*G*G*G*G (SEQ ID NO: 3) xxxxx mC*mG*mC* mA*mU*mU* mA*mU*mU* mA*mC*mU* mC*mA*mC* mG*mG*mU* mA*mC*mG*mA (SEQ ID NO: 48) 3′ [completely PS-modified oligo]
miR-126
  miR-126 expression (knockdown by inhibitors): succeeds in blocking miR126

## 5′ G*GT. GCA TGC ATG CAG G*G*G*G*G (SEQ ID NO: 2) xxxxx mCmGmC mAmUmU mAmUmU mAmCmU mCmAmC mGmGmU mAmCmG mA (SEQ ID NO: 17) 3′ [GpC]
miR-126
  miR-126 expression (knockdown by inhibitors): succeeds in blocking miR126

## 5′G*G*T GCA TCG ATG CAGG*G*G* G*G xxxxx mA*mC*mC*mC*mC*mU*mA*mU*mC*mA*mC*mA*mA*mU*mU*mA*mG*mC*mA*mU*mU*mA*mA 3′ [CpG-anti-miR155]
miR-155; [3]
  miR-155 expression: reduces miR-155 expression
miR-155; 18 hrs, RAW264.7 and A20 cells
  miR155 expression: reduces miR155 or miR-146a expression
[1]
  intracellular uptake: uptake of these compounds was observed
SHIP1 (miR155 target); [4]
  SHIP1 protein level: upregulated
SHIP1 (miR155 target); 500 nM, 48 hrs, RAW264.7 or A20 cells
  SHIP1 (downstream target regulation): regulates downstream targets

## G*G*T GCA TGC ATG CAGG*G*G* G*G (SEQ ID NO: 2) xxxxx mC*mC*mC*mA*mT*mG*mG*mA*mA*mT*mT*mC*mA*mG*mT*mT*mC*mT*mC*mA (SEQ ID NO: 36) 3′ [GpC-anti-miR146a]
miR-146a; 18 hrs, RAW264.7 and A20 cells
  miR-146a expression: reduces miR155 or miR-146a expression
IRAK1 (miR146a target)
  IRAK1 (downstream target regulation): regulates downstream targets

## 5′ G*G*T GCA TCG ATG CAGG*G*G* G*G xxxxx mC*mC*mC*mA*mU*mG*mG*mA*mA*mU*mU*mC*mA*mG*mU*mU*mC*mU*mC*mA 3′ [CpG-anti-miR146a]
[2]
  internalization by cultured AML cells: rapidly internalize
miR-146a; [3]
  miR-146a expression: reduces miR-146a expression
miR-146a; 18 hrs, RAW264.7 and A20 cells
  miR-146a expression: reduces miR155 or miR-146a expression
[1]
  intracellular uptake: uptake of these compounds was observed
[1]; without any transfection reagents
  internalization by target immune and leukemic cells: Dose and time dependent internalization
IRAK1 (miR146a target); [4]
  IRAK1 protein level: upregulated
IRAK1 (miR146a target)
  IRAK1 (downstream target regulation): regulates downstream targets
